# Data reported in article PMC8954733, “Microbial Transformation and Biological Activities of the Prenylated Aromatic Compounds from Broussonetia kazinoki” (Molecules, 2022).
# Read-outs that look alike come from different tables or passages of the source.
# Experiments:
# mushroom tyrosinase = test: Mushroom tyrosinase inhibition (L-tyrosine substrate, dopachrome absorbance at 490 nm); assay type: biochemical; settings: L-tyrosine as substrate, 30 min at 37 °C, mean ± SD, read-out: Anti-Tyrosinase IC50
# Protocol: All the compounds were investigated for their tyrosinase inhibitory effects using L-tyrosine as the substrate. […] All the compounds were first dissolved in dimethyl sulfoxide (DMSO) and then diluted into different concentrations (1, 2, 4, 10, 40, 80, and 160 µM). An amount of 100 µL of each sample solution and 50 µL of the 2 mM L-tyrosine solution in 0.1 M phosphate buffer (pH 6.5) were added to 96-well microplates. After incubation at room temperature for 5 min, 50 µL of mushroom tyrosinase (300 U/mL in phosphate buffer) was added to each well. After further incubation for 30 min under 37 °C, the absorbance of dopachrome produced in the mixture was determined at 490 nm with a microplate reader (SpectraMax 190; Molecular Devices, Sunnyvale, CA, USA). The percent of inhibition of tyrosinase activity was calculated using the formula: % inhibition = (A − B)/A × 100, in which A is the absorbance at 490 nm without the test sample, and B is the absorbance at 490 nm with the test sample. IC50 values were calculated from the mean values of data from four determinations.
# [1] = tested on: A375P (human melanoma) cell line; test: MTT cytotoxicity assay, A375P; assay type: cell-based; settings: 24 h treatment, mean ± SD, read-out: Cytotoxic effect IC50, cell line A375P
# Protocol: (§1) To evaluate the anticancer potential of compounds 1–11, an MTT assay was used to determine the cell viability of human melanoma (A375P) and murine melanoma (B16F10 and B16F1) cell lines following a 24 h treatment with compounds 1–11.
# (§2) The cytotoxic activities of all the compounds (1–11) were evaluated using the MTT assay. Briefly, the A375P (human melanoma), B16F10 and B16F1 (mouse melanoma) cell lines obtained from the Korean Cell Line Bank (Seoul, Korea) were cultured in Dulbecco’s Modified Eagle’s Medium (DMEM) (Gibco, CA, USA) containing penicillin (100 units/mL)-streptomycin (100 µg/mL) (Gibco, CA, USA) and 5% heat-inactivated fetal bovine serum (FBS) (Welgene, Korea) in a humidified chamber with 5% CO2 at 37 °C. The cells were seeded in 96-well plates at a density of 6 × 10^3 cells/well and incubated for 24 h. The medium was then aspirated and replaced with 100 μL of fresh medium containing various concentrations of the test compound. After incubation for a further 24 h, the compound containing the medium was replaced with 100 μL of a MTT solution (0.5 mg/mL) and incubated for 4 h. Then the insoluble formazan crystals were dissolved in 100 µL of DMSO and measured at 490 nm on a microplate reader.
# [2] = tested on: B16F10 (mouse melanoma) cell line; test: MTT cytotoxicity assay, B16F10; assay type: cell-based; settings: 24 h treatment, mean ± SD, read-out: Cytotoxic effect IC50, cell line B16F10
# Protocol: as §1, §2
# [3] = tested on: B16F1 (mouse melanoma) cell line; test: MTT cytotoxicity assay, B16F1; assay type: cell-based; settings: 24 h treatment, mean ± SD, read-out: Cytotoxic effect IC50, cell line B16F1
# Protocol: as §1, §2
Compound,IC50 (mushroom tyrosinase),"IC50 ([1]; Homo sapiens, A375P, 24 h)","IC50 ([2]; Mus musculus, B16-F10, 24 h)","IC50 ([3]; Mus musculus, B16-F1, 24 h)",IC50 [1],IC50 [2],IC50 [3]
"CC(C)=CCc1c(CCCc2ccc(O)cc2O)cc(O)c(O)c1CC=C(C)C [Compound 3, Kazinol F]",2.12 ± 0.21 µM,18.16 ± 0.09 µM,19.9 ± 0.73 µM,13.8 ± 0.88 µM,–,–,–
"CC(C)=CCc1c([C@H]2Oc3cc(O)cc(O)c3C(=O)[C@@H]2O)cc(O)c(O)c1CC=C(C)C [Compound 4, (2R,3R)-3,5,7,3′,4′-pentahydroxy-5′,6′-diprenylflavanonol]",24.1 ± 0.3 µM,13.8 ± 1 µM,27.8 ± 0.63 µM,24.4 ± 1.82 µM,–,–,–
"C=CC(C)(C)c1cc(CCCc2cc(O)c3c(c2CC=C(C)C)C[C@H](C(C)(C)OC)O3)c(O)cc1O [Compound 5, 5′-(2-methylbut-3-en-2-yl)-6″-(3-methylbut-2-enyl)-4″,5″-[(R)-2-(1-methoxy-1-methylethyl)]-dihydrofuranyl-2′,4′,3″-trihydroxydiphenylpropane]",> 80 µM,45.9 ± 0.65 µM,43.2 ± 0.71 µM,17.3 ± 0.22 µM,–,–,–
"O=c1[nH]cc(F)c(=O)[nH]1 [Compound 5-FU, 5-FU, reference compound]",–,–,–,–,13.1 ± 1.55 µM,4.61 ± 0.16 µM,12.8 ± 0.16 µM
"C=CC(C)(C)c1cc(CCCc2cc(O)c(O[C@@H]3O[C@H](CO)[C@@H](O)[C@H](O)[C@H]3O)c(CC=C(C)C)c2CC=C(C)C)c(O)cc1O [Compound 8, Kazinol C-4″-O-β-D-glucopyranoside]",> 80 µM,> 80 µM,> 80 µM,> 80 µM,–,–,–

# Now from value to compound, other results behind:
IC50 (mushroom tyrosinase),Compound,"IC50 ([1]; Homo sapiens, A375P, 24 h)","IC50 ([2]; Mus musculus, B16-F10, 24 h)","IC50 ([3]; Mus musculus, B16-F1, 24 h)",IC50 [1],IC50 [2],IC50 [3]
> 80 µM,"C=CC(C)(C)c1cc(CCCc2cc(O)c(O)c(CC=C(C)C)c2CC=C(C)C)c(O)cc1O [Compound 1, Kazinol C]",12.1 ± 0.24 µM,26 ± 0.33 µM,17.6 ± 0.33 µM,–,–,–
> 80 µM,"C=CC(C)(C)c1cc2c(cc1O)O[C@H](c1cc(O)c(O)c(CC=C(C)C)c1CC=C(C)C)CC2 [Compound 2, Kazinol E]",11.5 ± 0.24 µM,12.1 ± 0.87 µM,13.3 ± 0.22 µM,–,–,–
> 80 µM,"C=CC(C)(C)c1cc(CCCc2cc(O[C@@H]3O[C@H](CO)[C@@H](O)[C@H](O)[C@H]3O)c(O)c(CC=C(C)C)c2CC=C(C)C)c(O)cc1O [Compound 6, Kazinol C-3″-O-β-D-glucopyranoside]",> 80 µM,> 80 µM,> 80 µM,–,–,–
> 80 µM,"C=CC(C)(C)c1cc(CCCc2cc(O[C@@H]3O[C@H](CO)[C@@H](O)[C@H](O)[C@H]3O)c(O)c(CC=C(C)C)c2CC=C(C)C)c(O[C@@H]2O[C@H](CO)[C@@H](O)[C@H](O)[C@H]2O)cc1O [Compound 7, kazinol C-2′,3″-di-O-β-D-glucopyranoside]",17.8 to 24.2 µM,17.8 to 24.2 µM,17.8 to 24.2 µM,23.6 ± 0.52 µM,24.2 ± 1.26 µM,17.8 ± 1.65 µM
> 80 µM,"C=CC(C)(C)c1cc(CCCc2cc(O[C@@H]3O[C@H](CO)[C@@H](O)[C@H](O)[C@H]3O)c(O[C@@H]3O[C@H](CO)[C@@H](O)[C@H](O)[C@H]3O)c(CC=C(C)C)c2CC=C(C)C)c(O)cc1O [Compound 9, kazinol C-3″,4″-di-O-β-D-glucopyranoside]",> 80 µM,> 80 µM,> 80 µM,–,–,–
0.71 ± 0.01 µM,"CC(C)=CCc1c(CCCc2ccc(O)cc2O)cc(O)c(O[C@@H]2O[C@H](CO)[C@@H](O)[C@H](O)[C@H]2O)c1CC=C(C)C [Compound 11, Kazinol F-4″-O-β-D-glucopyranoside]",> 80 µM,> 80 µM,> 80 µM,–,–,–
